# “Also recorded” adds a separate entry of the source. Read-outs that look alike come from different tables or passages of the source.
# Tests used:
# GLIC = biological target: T1, GLIC (Gloeobacter violaceus, UniProt Q7NDN8); settings: for Hill Coefficient: Hill (one-site) fit of inhibition of GLIC currents, mean ± se; for modulation of GLIC: at anesthetizing concentrations
# T1 sequence (Q7NDN8 44-359): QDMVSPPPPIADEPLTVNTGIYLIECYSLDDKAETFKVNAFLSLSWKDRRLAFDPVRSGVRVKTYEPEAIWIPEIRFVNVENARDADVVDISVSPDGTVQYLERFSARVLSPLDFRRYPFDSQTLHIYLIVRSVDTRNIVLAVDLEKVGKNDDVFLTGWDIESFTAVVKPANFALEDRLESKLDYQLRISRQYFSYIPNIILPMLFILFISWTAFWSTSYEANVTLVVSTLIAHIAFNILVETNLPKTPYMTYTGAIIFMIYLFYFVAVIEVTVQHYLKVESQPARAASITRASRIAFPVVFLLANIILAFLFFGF
# glycine receptors = settings: cited from earlier work
# [1] = read-out: Anesthetic EC50; anesthetizing concentration in animals; cited from earlier work
# 5HT3A receptors = settings: 1 MAC of halothane; cited from earlier work
# α4β4 nACh receptors = settings: nitrous oxide at 0.6 atm; cited from earlier work
# 5HT3 receptors = settings: cited from earlier work
# α4β2 nACh receptors = settings: nitrous oxide at 0.6 atm; cited from earlier work
# [2] = cited from earlier work
# GABA receptors = settings: nitrous oxide at 0.6 atm; cited from earlier work
# glycine α1 receptors = settings: enhancement of glycine currents; cited from earlier work
# α4 β2 nACh receptors = settings: inhibition; cited from earlier work
# glycine α1 β receptors = settings: enhancement of glycine currents; cited from earlier work
# [3] = biological target: α4β2 neuronal nicotinic acetylcholine receptors; settings: cited from earlier work
# [4] = biological target: α2 β4 neuronal nicotinic acetylcholine receptors; settings: cited from earlier work
# [5] = biological target: α3 β4 neuronal nicotinic acetylcholine receptors; settings: cited from earlier work
# GABAA receptors = settings: modulation of GABAA receptors; cited from earlier work
# [6] = system: α4β4 neuronal nicotinic acetylcholine receptors; settings: 75mM ethanol; cited from earlier work
# homomeric α7 receptors = settings: 25–50 mM ethanol, response is variable; cited from earlier work
# [7] = system: α3β2 neuronal nicotinic acetylcholine receptors; settings: cited from earlier work
# [8] = system: α2β2 neuronal nicotinic acetylcholine receptors; settings: 75mM ethanol; cited from earlier work
# [9] = system: GABAA receptors containing a δ subunit; settings: cited from earlier work
# [10] = IC50_1, two-site model, apparent affinity for site 1
# [11] = IC50_2, two-site model, apparent affinity for site 2
structure (smiles),measurement,setting,value
CCOC(=O)c1cncn1[C@H](C)c1ccccc1 [Etomidate],effect on GLIC currents relative to anesthetic concentrations,GLIC,inhibitory only at concentrations above those used to achieve anesthesia
same,effect on currents through GLIC (current tracing),GLIC; 50 μM etomidate,inhibit currents through GLIC
same,Hill Coefficient,GLIC,not different from 1
same,potentiation of currents through glycine receptors,glycine receptors; 300μM etomidate,29%
FC(F)(F)C(Cl)Br (stereo not drawn) [Halothane],EC50,[1],230 µM
same,potentiation of 5HT3A receptors,5HT3A receptors,approximately 200%
same,concentration at which inhibition of GLIC was produced,GLIC,1 % of MAC
same,effect on currents through GLIC (current tracing),GLIC; 0.25 mM halothane,inhibit currents through GLIC
same,Hill Coefficient,GLIC,0.27 ± 0.04
same,Hill Coefficient,GLIC; listed as halothane,0.27
same,IC50,GLIC; [10],0.3 µM
same,IC50,GLIC; [11],1100 µM
[N-]=[N+]=O [Nitrous Oxide],inhibition,α4β4 nACh receptors,7%
same,inhibition,5HT3 receptors; nitrous oxide at 0.6 atm,approximately 15%
same,modulation of GLIC,GLIC,did not modulate GLIC
same,inhibition,α4β2 nACh receptors,39%
same,Anesthetic EC50,[2]; MAC in humans,1.04 atm ([7])
same,potentiation of GABA receptor function,GABA receptors,~20%
same,potentiation of glycine receptor function,glycine receptors; nitrous oxide at 0.6 atm,approximately 30%
CC(C)c1cccc(C(C)C)c1O [Propofol],EC50,glycine α1 receptors,16 µM
same,EC50,[1],1.9 µM
same,Hill number,α4 β2 nACh receptors,2.9
same,IC50,α4 β2 nACh receptors,19 µM
same,lowest concentration inhibiting currents,GLIC,2 % of its anesthetic EC50
same,effect on currents through GLIC (current tracing),GLIC; 1 μM propofol,inhibit currents through GLIC
same,Hill Coefficient,GLIC,0.42 ± 0.08
same,Hill Coefficient,GLIC; listed as propofol,0.42
same,EC50,glycine α1 β receptors,27 µM
FC(F)OC(Cl)C(F)(F)F (stereo not drawn) [Isoflurane],EC50,[1],280 µM
same,IC50,[3]; α4β2 isoform,82 µM
same,Hill number,α4 β2 nACh receptors,1.3
same,IC50,α4 β2 nACh receptors,85 µM
same,potentiation of 5HT3 receptor function,5HT3 receptors; anesthetic concentration raised to 10 MAC,> 100%
same,enhancement of 5HT3 receptor function,5HT3 receptors; at MAC,less than 50%
same,IC50,[4]; α2 β4 isoform,25 µM
same,concentration at which inhibition of GLIC was produced,GLIC,1 % of MAC
same,effect on currents through GLIC (current tracing),GLIC; 0.3 mM isoflurane,inhibit currents through GLIC
same,Hill Coefficient,GLIC,0.32 ± 0.07
same,Hill Coefficient,GLIC; listed as isoflurane,0.32
same,IC50,[5]; α3 β4 isoform,56 µM
FC(F)OC(F)C(F)(F)F (stereo not drawn) [Desflurane],EC50,[1],560 µM
same,concentration at which inhibition of GLIC was produced,GLIC,0.01 % of MAC
same,effect on currents through GLIC (current tracing),GLIC; 0.5 mM desflurane,inhibit currents through GLIC
same,Hill Coefficient,GLIC,0.25 ± 0.05
same,Hill Coefficient,GLIC; listed as desflurane,0.25
same,IC50,GLIC; [10],0.01 µM
same,IC50,GLIC; [11],300 µM
[Xe] [Xenon],effect on GLIC currents,GLIC; 0.8 atm xenon,significantly inhibited currents
same,effect on currents through GLIC (current tracing),GLIC; 80 % atm xenon,inhibit currents through GLIC
same,Hill Coefficient,GLIC,1.9 ± 0.47
same,Hill Coefficient,GLIC; listed as xenon,not different from 1; also recorded: not significantly different than 1
same,Anesthetic EC50,[2]; MAC of xenon in humans,0.71 atm ([5])
"CCOC(=O)c1cncn1[C@@H](C)c1ccccc1 (single isomer, unassigned) [S isomer]",Hill Coefficient,GABAA receptors,2.9
"CCOC(=O)c1cncn1[C@H](C)c1ccccc1 (single isomer, unassigned) [R isomer]",Hill Coefficient,GABAA receptors,1.9
CCO [Ethanol],effect on currents,[6],potentiates currents
same,effect on receptors,homomeric α7 receptors,inhibits
same,effect on currents,[3]; 75mM ethanol,potentiates currents
same,maximal increase in currents,5HT3 receptors; ethanol 50 to 200 mM,≤ 50%
same,effect on currents,[4]; 75mM ethanol,potentiates currents
same,effect on GLIC currents,GLIC; 200 mM ethanol compared to controls (p > 0.05),no effect
same,effect on GLIC currents,"GLIC; 200 mM ethanol compared to controls (p > 0.05), listed as ethanol",did not modulate channel currents
same,modulation of GLIC,GLIC,did not modulate GLIC
same,sensitivity to ethanol,[7],not sensitive to ethanol
same,effect on currents,[8],potentiates currents
same,lowest potentiating concentration,[9],3 mM
same,sensitivity to ethanol,[5],not sensitive to ethanol
FCOC(C(F)(F)F)C(F)(F)F [Sevoflurane],EC50,[1],330 µM
same,effect on currents through 5HT3 receptors,5HT3 receptors; at MAC,inhibiting rather than enhancing currents
same,concentration at which inhibition of GLIC was produced,GLIC,1 % of MAC
same,effect on currents through GLIC (current tracing),GLIC; 0.3 mM sevoflurane,inhibit currents through GLIC
same,Hill Coefficient,GLIC,0.27 ± 0.1
same,Hill Coefficient,GLIC; listed as sevoflurane,0.27
